# Data taken from patent publication US6693095B2, “Antibacterial substituted 7-acylamino-3-(methylhydrazono) methyl-cephalosporins and intermediates” (priority 1997, dated 2004).
# Test system: multi-drug resistant Pneumococcus
# Assay: Agar Dilution Test (NCCLS), MHK
# Type: cell-based, Pneumococcus pneumoniae
# Details: against multi-drug resistant Pneumococcus
# Excerpt: In particular, the active compounds of the invention show antimicrobial, e.g. antibacterial, activity against aerobic and anaerobic growing bacteria, e.g. gram negative and gram positive bacteria such as Enterobacter, e.g. Enterobacter cloacae; Enterococcus, e.g. Enterococcus faecalis, Enterococcus faecium; Moraxella, e.g. Moraxella catarrhalis; Haemophilus, e.g. Haemophilus influenza; Klebsiella, e.g. Klebsiella edwardsii, Klebsiella pneumoniae; Streptococcus, e.g. Streptococcus pyogenes; Staphylococcus, e.g. Staphylococcus aureus MSSA (methicillin sensitive strains); Staphylococcus aureus MRSA (methicillin resistant strains); Escherichia, e.g. Escherichia coli; Proteus, e.g. Proteus mirabilis, Salmonella, e.g. Salmonella typhimurium, Serratia, e.g. Serratia marcescens, Pseudomonas, e.g. Pseudomonas aeruginosa; Pneumococci, e.g. Pneumococcus pneumoniae (penicillin sensitive and mult-drug resistant strains); in vitro in the Agar DilutionTest for bacteria according to National Commitee for Clinical Laboratory Standards (NCCLS) 1993,
# Document-M7-A3 Vol.13, No. 25: “Methods for dilution Antimicrobial Susceptibility Tests for Bacteria that Grow Aerobically-Third Edition, Approved Standard”; and
# Document M11-A3 for anaerobic bacteria […]
substance,measurement,value
"7-(((5-amino-1,2,4-thiadiazol-3-yl)-(Z)-(fluoromethoxyimino)acetyl)amino)-3-(imino-1-piperazinyhmethyl)medtylhydrazono)methyl-3-cephem4-carboxylic acid [Example 1]",MHK,0.4 µg/mL
